Assay results as given in patent publication US7868204B2, “Inhibitors of histone deacetylase” (MethylGene Inc., priority 2001, dated 2011).
Read-outs that look alike come from different tables or passages of the source. Values belong to the molecule of their own block, whether it stands above or below them.

Tests used:
[1] = system: HCT116 cells; test: MTT assay; type: cell-based; settings: Homo sapiens, HCT116 cells, 72 hours
Experimental: HCT116 cells (2000/well) were plated into 96-well tissue culture plates one day before compound treatment. Compounds at various concentrations were added to the cells. The cells were incubated for 72 hours at 37° C. in 5% CO2 incubator. MTT (3-[4,5-dimethylthiazol-2-yl]-2,5 diphenyl tetrazolium bromide, Sigma) was added at a final concentration of 0.5 mg/ml and incubated with the cells for 4 hours before one volume of solubilization buffer (50% N,N-dimethylformamide, 20% SDS, pH 4.7) was added onto the cultured cells. […] OD values were converted to cell numbers according to a standard growth curve of the relevant cell line.

[2] = target: T1, cloned recombinant human HDAC-1 (Homo sapiens, UniProt Q13547); test: Human HDAC-1 enzyme inhibition, Assay 1 ([3H]-acetylated histone substrate, scintillation counting); type: biochemical
T1 construct: made in house; host or cells: Baculovirus insect cell expression system
Experimental: Assay 1. HDAC inhibitors were screened against a cloned recombinant human HDAC-1 enzyme expressed and purified from a Baculovirus insect cell expression system. […] The mixture was extracted with ethyl acetate and the released [^3H]-acetic acid was quantified by scintillation counting. For inhibition studies, the enzyme was preincubated with compounds at 4° C. for 30 minutes prior to initiation of the enzymatic assay. IC50 values for HDAC enzyme inhibitors were determined by performing dose response curves with individual compounds and determining the concentration of inhibitor producing fifty percent of the maximal inhibition.

[3] = Table 5d, read-out: HDAC-1 IC50
[4] = Table 5F, read-out: Human HDAC-1 IC50
[5] = Table 5b, read-out: Human HDAC-1 IC50
[6] = Table 5c, read-out: Human HDAC-1 IC50

T1 sequence (Q13547 whole entry): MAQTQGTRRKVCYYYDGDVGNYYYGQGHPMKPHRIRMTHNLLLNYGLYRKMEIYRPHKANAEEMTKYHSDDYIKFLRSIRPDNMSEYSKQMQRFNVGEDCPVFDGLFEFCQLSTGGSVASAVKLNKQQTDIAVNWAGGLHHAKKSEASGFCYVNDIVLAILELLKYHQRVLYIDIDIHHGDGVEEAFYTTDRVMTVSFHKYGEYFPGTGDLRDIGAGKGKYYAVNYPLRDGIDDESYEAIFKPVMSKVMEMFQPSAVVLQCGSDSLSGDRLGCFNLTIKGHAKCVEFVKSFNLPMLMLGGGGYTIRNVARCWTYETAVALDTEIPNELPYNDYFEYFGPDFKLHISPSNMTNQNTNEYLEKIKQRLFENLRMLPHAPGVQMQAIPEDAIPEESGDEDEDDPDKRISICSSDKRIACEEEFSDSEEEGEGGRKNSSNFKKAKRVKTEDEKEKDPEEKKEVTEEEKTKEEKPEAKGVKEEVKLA

IC50 ([1]; HCT-116, Table 5d): 5 µM
IC50 [2, 3]: 4 µM
Compound: COc1cc(Cl)nc(NCc2ccc(/C=C/C(=O)Nc3ccccc3N)cc2)n1 [Cpd 493, N-(2-Amino-phenyl)-3-{4-[(4-chloro-6-methoxy-pyrimidin-2-ylamino)-methyl]-phenyl]-acrylamide]

IC50 ([1]; HCT-116, Table 5d): 3 µM
IC50 [2, 3]: 4 µM
Compound: CN1CCN(c2ccc(NCc3ccc(/C=C/C(=O)Nc4ccccc4N)cc3)cc2F)CC1 [Cpd 527, N-(2-Amino-phenyl)-3-(4-{[3-fluoro-4-(4-methyl-piperazin-1-yl)-phenylamino]-methyl}-phenyl)-acrylamide]

IC50 ([1]; HCT-116, Table 5d): 4 µM
IC50 [2, 3]: 3 µM
Compound: COc1cc(NCc2ccc(/C=C/C(=O)Nc3ccccc3N)cc2)cc(OC)c1 [Cpd 494]

IC50 ([1]; HCT-116, 72 h, Table 5F): 7 µM
IC50 [2, 4]: 21 µM
Compound: Nc1ccccc1NC(=O)c1ccc(NCCn2cnc3ccccc3c2=O)nc1 [Cpd 446, N-(2-Amino-phenyl)-6-[2-(4-oxo-4H-quinazolin-3-yl)-ethylamino]-nicotinamide]

IC50 ([1]; HCT-116, 72 h, Table 5b): 0.3 µM
IC50 [2, 5]: 2 µM
Compound: Nc1nc(NCc2ccc(C(=O)Nc3ccccc3N)cc2)nc(-c2ccccc2)n1 [Cpd 484]

IC50 ([1]; HCT-116, 72 h, Table 5F): 5 µM
IC50 [2, 4]: 15 µM
Compound: Nc1ccccc1NC(=O)c1ccc(-c2noc(CN3CCCCC3)n2)cc1 [Cpd 354, N-(2-Amino-phenyl)-4-(5-piperidin-1-ylmethyl-[1,2,4]oxadiazol-3-yl)-benzamide]

IC50 ([1]; HCT-116, Table 5d): 9 µM
IC50 [2, 3]: 24 µM
Compound: Nc1ccccc1NC(=O)/C=C/c1ccc(CNc2cccc([N+](=O)[O-])c2)cc1 [Cpd 551, N-(2-Amino-phenyl)-3-{4-[(3-nitro-phenylamino)-methyl]-phenyl}-acrylamide]

IC50 ([1]; HCT-116, 72 h, Table 5b): 2 µM
IC50 [2, 5]: 11 µM
Compound: Nc1nc(/C=C/c2ccc(C(=O)Nc3ccccc3N)cc2)nc(N2CCCCC2)n1 [Cpd 223]

IC50 ([1]; HCT-116, 72 h, Table 5F): 10 µM
IC50 [2, 4]: 3 µM
Compound: Cc1nc(-c2ccc(C(=O)Nc3ccccc3N)cc2)no1 [Cpd 353, N-(2-Amino-phenyl)-4-(5-methyl-[1,2,4]oxadiazol-3-yl)-benzamide]

IC50 ([1]; HCT-116, Table 5d): > 25 µM
IC50 [2, 3]: 5 µM
Compound: Nc1ccccc1NC(=O)/C=C/c1ccc(CNc2ccc(OC(F)(F)F)cc2)cc1 [Cpd 504, N-(2-Amino-phenyl)-3-{4-[(4-trifluoromethoxy-phenylamino)-methyl]-phenyl}-acrylamide]

IC50 ([1]; HCT-116, Table 5d): 22 µM
IC50 [2, 3]: 4 µM
Compound: Nc1ccccc1NC(=O)/C=C/c1ccc(CNc2ccc(Cl)cc2)cc1 [Cpd 552, N-(2-Amino-phenyl)-3-{4-[(4-chloro-phenylamino)-methyl]-phenyl}-acrylamide]

IC50 ([1]; HCT-116, 72 h, Table 5F): 5 µM
IC50 [2, 4]: 5 µM
Compound: Nc1ccccc1NC(=O)c1ccc(NC(=O)C(F)(F)F)cc1 [Cpd 431, N-(2-Aminophenyl)-4-(2,2,2-trifluoro-acetylamino)-benzamide]

IC50 ([1]; HCT-116, Table 5d): 16 µM
IC50 [2, 3]: 3 µM
Compound: CSc1ccc(NCc2ccc(/C=C/C(=O)Nc3ccccc3N)cc2)cc1C(F)(F)F [Cpd 566, N-(2-Amino-phenyl)-3-{4-[(4-methylsulfanyl-3-trifluoromethyl-phenylamino)-methyl]-phenyl]-acrylamide]

Compound: Nc1ccccc1NC(=O)/C=C/c1ccc(CNc2cc([N+](=O)[O-])cc([N+](=O)[O-])c2)cc1 [Cpd 495]
IC50 ([1]; HCT-116, Table 5d): 7 µM
IC50 [2, 3]: 4 µM

IC50 ([1]; HCT-116, 72 h, Table 5c): 17 µM
IC50 [2, 6]: 15 µM
Compound: COc1cc(CN(C)Cc2ccc(/C=C/C(=O)Nc3ccccc3N)cc2)cc(OC)c1OC [Cpd 107]

IC50 ([1]; HCT-116, Table 5d): 6 µM
IC50 [2, 3]: 21 µM
Compound: COc1cc(/C=C/C(=O)Nc2ccccc2N)cc(OC)c1CNc1cc(OC)c(OC)c(OC)c1 [Cpd 560]

IC50 ([1]; HCT-116, 72 h, Table 5c): 8 µM
IC50 [2, 6]: 11 µM
Compound: COc1ccc(CNc2ncc(/C=C/C(=O)Nc3ccccc3N)cn2)cc1 [Cpd 118, N-(2-amino-phenyl)-3-[2(4-methoxy-benzylamino)-pyrimidin-5-yl]-acrylamide]

IC50 ([1]; HCT-116, Table 5d): 19 µM
IC50 [2, 3]: 4 µM
Compound: Nc1ccccc1NC(=O)/C=C/c1ccc(CNc2cccc(OCCO)c2)cc1 [Cpd 549, N-(2-Amino-phenyl)-3-(4-{[3-(2-hydroxy-ethoxy)-phenylamino]-methyl}-phenyl)-acrylamide]

IC50 ([1]; HCT-116, 72 h, Table 5F): 3 µM
IC50 [2, 4]: 3 µM
Compound: COc1ccc(C2=NC(c3ccc(C(=O)Nc4ccccc4N)cc3)CO2)cc1OC (centres unmarked) [compound 301, N-(2-Amino-phenyl)-4-[2-(3,4-dimethoxy-phenyl)-4,5-dihydro-oxazol-4-yl]-benzamide]

IC50 ([1]; HCT-116, 72 h, Table 5E): 10 µM
IC50 ([2]; Table 5E, read-out: Human HDAC-1 IC50): 7 µM
Compound: COc1cccc(-c2ccc(C(=O)Nc3ccccc3N)cn2)c1 [Cpd 141, N-(2-Amino-phenyl)-6-(3-methoxyphenyl)-nicotinamide]

IC50 ([1]; HCT-116, 72 h, Table 5F): 3 µM
IC50 [2, 4]: 4 µM
Compound: Nc1ccccc1NC(=O)c1ccc(Cn2cnc3cc(F)c(F)cc3c2=O)cc1 [Cpd 339, N-(2-Amino-phenyl)-4-(6,7-difluoro-4-oxo-4H-quinazolin-3-ylmethyl)-benzamide]

IC50 ([1]; HCT-116, Table 5d): 9 µM
IC50 [2, 3]: 3 µM
Compound: Nc1ccccc1NC(=O)/C=C/c1ccc(CNc2cccc(I)c2)cc1 [Cpd 548, N-(2-Amino-phenyl)-3-{4-[(3-iodo-phenylamino)-methyl]-phenyl}-acrylamide]

IC50 ([1]; HCT-116, Table 5d): > 25 µM
IC50 [2, 3]: 4 µM
Compound: Nc1ccccc1NC(=O)/C=C/c1ccc(CNc2ccc(-c3ccccc3)cc2)cc1 [Cpd 511, N-(2-Amino-phenyl)-3-[4-(biphenyl-4-ylaminomethyl)-phenyl]-acrylamide]

IC50 ([1]; HCT-116, Table 5d): > 25 µM
IC50 [2, 3]: 15 µM
Compound: Nc1ccccc1NC(=O)/C=C/c1ccc(CNc2cccc(-c3nnn[nH]3)c2)cc1 [Cpd 543, N-(2-Amino-phenyl)-3-(4-{[3-(1H-tetrazol-5-yl)-phenylamino]-methyl}-phenyl)-acrylamide]

IC50 ([1]; HCT-116, 72 h, Table 5F): 9 µM
IC50 [2, 4]: 7 µM
Compound: CC(C)(O)C#Cc1ccc(C(=O)Nc2ccccc2N)cc1 [Cpd 195]

IC50 ([1]; HCT-116, 72 h, Table 5c): 12 µM
IC50 [2, 6]: 7 µM
Compound: COc1ccc(CNc2ccc(/C=C(\C)C(=O)Nc3ccccc3N)cn2)cc1 [Cpd 61b, N-(2-aminophenyl)-3-[6-(4-methoxy-benzylamino)-pyridin-3-yl]-2-methyl-acrylamide]

IC50 ([1]; HCT-116, 72 h, Table 5F): 3 µM
IC50 [2, 4]: 4 µM
Compound: Nc1ccccc1NC(=O)c1ccc(C#Cc2ccccc2)cc1 [Cpd 196]

IC50 ([1]; HCT-116, 72 h, Table 5F): 2 µM
IC50 [2, 4]: 4 µM
Compound: COc1ccc(C2=NCC(c3ccc(C(=O)Nc4ccccc4N)cc3)O2)cc1OC (centres unmarked) [compound 305, N-(2-Amino-phenyl)-4-[2-(3,4-dimethoxy-phenyl)-4,5-dihydro-oxazol-5-yl]-benzamide]

IC50 ([1]; HCT-116, 72 h, Table 5b): 0.7 µM
IC50 [2, 5]: 0.1 µM
Compound: Nc1ccccc1NC(=O)c1ccc(CNc2nc(NC3CC3)nc(OCCc3ccccc3)n2)cc1 [Cpd 482]

IC50 ([1]; HCT-116, Table 5d): 10 µM
IC50 [2, 3]: 3 µM
Compound: Nc1ccccc1NC(=O)/C=C/c1ccc(CNc2cccc(Br)c2)cc1 [Cpd 546, N-(2-Amino-phenyl)-3-{4-[(3-bromo-phenylamino)-methyl]-phenyl}-acrylamide]

IC50 ([1]; HCT-116, 72 h, Table 5c): 3 µM
IC50 [2, 6]: 7 µM
Compound: Cc1ccc(CNc2ccc(/C=C/C(=O)Nc3ccccc3N)cn2)cc1 [Cpd 117, N-(2-Amino-phenyl)-3-[6-(4-methyl-benzylamino)-pyridin-3-yl]-acrylamide]

IC50 ([1]; HCT-116, Table 5d): 6 µM
IC50 [2, 3]: 4 µM
Compound: Nc1ccccc1NC(=O)/C=C/c1ccc(CNc2cc(Cl)cc(Cl)c2)cc1 [Cpd 535, N-(2-Amino-phenyl)-3-{4-[(3,5-dichloro-phenylamino)-methyl]-phenyl}-acrylamide]

IC50 ([1]; HCT-116, Table 5d): 10 µM
IC50 [2, 3]: 7 µM
Compound: Nc1ccccc1NC(=O)/C=C/c1ccc(CNc2cccc3ccccc23)cc1 [Cpd 558, N-(2-Amino-phenyl)-3-[4-(naphthalen-1-ylaminomethyl)-phenyl]-acrylamide]

IC50 ([1]; HCT-116, Table 5d): 5 µM
IC50 [2, 3]: 6 µM
Compound: COc1cc(OC)c(OC)cc1CNc1ccc(/C=C/C(=O)Nc2ccccc2N)cc1 [Cpd 517]

IC50 ([1]; HCT-116, 72 h, Table 5F): 0.6 µM
IC50 [2, 4]: 4 µM
Compound: Nc1ccccc1NC(=O)c1ccc(CN2C(=O)COc3cccnc32)cc1 [Cpd 364, N-(2-Amino-phenyl)-4-(3-oxo-2,3-dihydro-pyrido[3,2-b][1,4]oxazin-4-ylmethyl)-benzamide]

IC50 ([1]; HCT-116, 72 h, Table 5b): 0.7 µM
IC50 [2, 5]: 3 µM
Compound: COc1ccc(CCNc2nc(NCc3ccc(C(=O)Nc4ccccc4N)cc3)nc(NC3CC3)n2)cc1OC [Cpd 478]

IC50 ([1]; HCT-116, Table 5d): 11 µM
IC50 [2, 3]: 4 µM
Compound: Nc1ccccc1NC(=O)/C=C/c1ccc(CNc2cccc(F)c2)cc1 [Cpd 559, N-(2-Amino-phenyl)-3-{4-[(3-fluoro-phenylamino)-methyl]-phenyl}-acrylamide]

IC50 ([1]; HCT-116, 72 h, Table 5F): 11 µM
IC50 [2, 4]: 3 µM
Compound: COc1cc(NCc2ccc(C(=O)Nc3ccccc3N)cc2)c(C(=O)O)cc1OC [Cpd 406, 2-[4-(2-Amino-phenylcarbamoyl)-benzylamino]-4,5-dimethoxy-benzoic acid]

IC50 ([1]; HCT-116, Table 5d): > 25 µM
IC50 [2, 3]: 3 µM
Compound: COc1ccc2nc(NCc3ccc(/C=C/C(=O)Nc4ccccc4N)cc3)sc2c1 [Cpd 502]

IC50 ([1]; HCT-116, 72 h, Table 5b): 3 µM
IC50 [2, 5]: 0.4 µM
Compound: Nc1ccccc1NC(=O)c1ccc(CNc2nc(NC3Cc4ccccc4C3)nc(-c3ccccc3)n2)cc1 [Cpd 485, N-(2-amino-phenyl)-4-{[6-(2-indanyl-amino)-4-phenyl-[1,3,5]-triazin-2-yl-amino]-methyl}-benzamide]
